Results as given in patent publication US8507460B2, “Substituted 3′,5′-cyclic phosphates of purine nucleotide compounds and pharmaceutical compositions for the treatment of viral infections” (priority 2011, dated 2013).

Experiments:
[1] = Stability in rat whole blood; type: in vitro ADME
[2] = Stability in simulated gastric and intestinal fluids; type: in vitro ADME; details: 100 μM, 2 hours at 37° C., percent of peak area at time zero
Procedure: Simulated gastric and intestinal fluids containing pepsin and pancreatin respectively were prepared according to the U.S. Pharmacopoeia USP291 procedure (www.pharmacopeia.cn/v29240/usp29nf24s0_ris1s126.html). Test compound (final concentration 100 μM) was incubated in duplicate in the appropriate fluid for 2 hours at 37° C. The samples were quenched with 200 μl cold acetonitrile, vortexed for 30 seconds and then centrifuged at 16,100 g for 10 min. The supernatants were analyzed by HPLC on a C-18 column with UV detection at 252 nm. The time 0 samples were prepared by adding SGF or SIF fluid to the quenching solvent followed by the test compound. Stability of the compound was determined by peak area the test compound after incubation and calculated as percent of the peak area observed at time zero.

[3] = Stability in fresh human whole blood; type: in vitro ADME; details: 0.5 μM, percent unchanged
Procedure: Stability of test compounds were determined in fresh human whole blood with K2EDTA as the anticoagulant (stored refrigerated at 2-8° C. and used within 7 days of receipt). The experiment was conducted with three replicates for each time point. Whole blood, pre-incubated at 37° C. for 10-15 minutes, was fortified with a solution of test compound for a final concentration of 0.5 μM and mixed for 30 sec. At intervals (0, 0.5, 1 and 2 hr), three […] aliquots were combined with 200 μL (each) of an ice-cold solution of the internal standard (carbutamide 500 ng/mL in acetonitrile). The samples were vortexed for 30 sec and then centrifuged at 16,100 g for 5 min. The supernatant was analyzed by LC-MS/MS. The MS peak area ratio of the test compound versus the internal standard was calculated and percent unchanged test compound was calculated for each time point using this ratio.

fresh human hepatocytes = assay: Release of active metabolite in fresh human hepatocytes; type: in vitro ADME; details: 10 μM, 6 hr
Procedure: Plates of fresh human and mouse hepatocytes were obtained on ice. The medium was removed and replaced with hepatocyte culture medium (William's E supplemented with penicillin-streptomycin, 1% L-glutamine, 1% insulin-transferrin-selenium and 0.1 μM Dexamethasone (Invitrogen) or with Invitro GRO HI medium complemented with Torpedo antibiotics (Celsis)). Cells were left overnight in an incubator at 37° C. to acclimatize to culture and the medium.
Hepatocyte incubations were conducted at a final volume of 0.5 mL hepatocyte culture medium/well (0.8 million cells/well for human and 0.5 million cells/well for mouse; 12 well plate no overlay, collagen coat). Culture medium from overnight incubation of cells was removed and replaced with fresh medium, pre-warmed to 37° C., containing 10 μM of test compound from a stock solution in DMSO (final DMSO concentration was 0.1%). At each specific time point, incubation medium was removed and cell monolayers were carefully washed two times with ice-cold PBS. Following the last wash, all PBS was carefully removed and 1.0 mL of extraction solution (ice-cold 70% methanol/30% water) added. Cells were scraped off and suspended in the extraction solution, transferred to 2 mL polypropylene microfuge tubes and intracellular contents extracted overnight at −20° C.
After the overnight treatment the cellular extracts were prepared by centrifugation at 16,000×g for 10 min to remove cellular debris. The remaining sample was then dried using a refrigerated centrivap concentrator. Dry extracts were reconstituted in 1000 μL of HPLC-grade water and centrifuged at 16,000×g for 10 min. Aliquots (100 μL each) of the supernatant were transferred into a 96 well plate and internal standard (4 ng/mL final concentration) was added as the internal standard (IS) for LC-MS/MS analysis.
The incubation time points were 6, 24 and 48 hours for human hepatocytes and 1, 4, 8, 12 and 24 hours for mouse hepatocytes.

[4] = Plasma and liver pharmacokinetics following a single oral dose in monkeys (Example 6); type: in vivo; details: cynomolgus monkey, plasma, Cynomolgus monkeys, single oral dose (mg/kg per Table 6: 1a 10, A 25, B 10, C 10, D 50)
Procedure: […] Untreated animals were used for the collection of control liver. Plasma samples were collected at 1, 2, 4, 6, 8, 12 and 24 hours for all compounds and additionally at 0.5 hour (Compounds 1a, B and D), 3 and 10 hours (Compound C), and 32 and 48 hours post dose for Compound A. Terminal liver samples were collected from three animals per time point at 6, 12 and 24 hours post dose for all compounds and additionally at 2 hours (Compounds 1a, B and D), 3 hours (Compound C) and 32 and 48 hours post dose for Compound A. Liver specimens were collected from all animals immediately after the incision. Freezing forceps stored in liquid nitrogen were used to freeze the liver before excision.
Plasma samples were analyzed for the prodrug and 2′-methylguanosine (2′-MeG) or relevant nucleoside by LC-MS/MS. For protein precipitation and extraction, each plasma sample (50 μL) was treated with 500 μL of 0.2% formic acid in acetonitrile and 20 μL of an appropriate internal standard working solution. After vortexing and centrifugation, 500 μL of the sample extracts were transferred to a new plate, dried under N2 at ˜28° C. and reconstituted with 75 μL of 0.2% FA in water. The extracts were chromatographed on an Aquasil C18 column using a gradient system of 0.2% formic acid in water and acetonitrile. The analytes were detected and quantified by tandem mass spectrometry in positive ion mode on an MDS Sciex API5000 or an API4000 equipped with a Turbo Ionspray® interface. The calibration range was 0.500 (LLOQ) to 200 ng/mL in mouse plasma. The corresponding range for molar units is 1.68 to 673 pmol/mL.
Liver samples were analyzed for the active species 2′-methylguanosine triphosphate (2′-MeGTP) or relevant nucleoside triphosphate by LC-MS/MS. The triphosphate levels were assayed by homogenizing (on ice) a known weight of mouse liver with 4× volume of 0.95 M trichloroacetic acid (TCA). Appropriate internal standard solution was added to the homogenate followed by neutralization with 20% ammonium hydroxide solution and addition of 500 μL 1% formic acid. The tissue samples were extracted by weak anion exchange solid phase extraction (SPE). Post extraction, the eluates were evaporated under nitrogen, followed by reconstitution before injection onto the LC-MS/MS system. The samples were chromatographed on a Luna NH2 column using a gradient system of ammonium acetate (1 mM to 20 mM and pH 8.0 to pH 10.0) in water and acetonitrile (70:30). The analyte was detected and quantified by tandem mass spectrometry in positive ion mode on an API4000 equipped with a Turbo Ionspray® interface. The calibration range was 10 to 10000 pmol/mL in mouse liver homogenate (50 to 50000 pmol/g of mouse liver).

[5] = Cytotoxicity evaluation, CellTiter-Blue Cell Viability Assay; type: cell-based; details: human, Zluc cells, read-out: HCV Replicon CC50
Procedure: For cytotoxicity evaluation, Zluc cells were treated with compound as described above, and cell viability was monitored using the CellTiter-Blue Cell Viability Assay (Promega) by adding 20 μL of the assay solution to each well. The plates were then incubated at 37° C./5% CO2 for at least 3 hours.

Q: Which results are given for `CCOc1nc(N)nc2c1ncn2[C@@H]1O[C@@H]2COP(=O)(OC(C)C)O[C@H]2[C@@]1(C)O` (single isomer, unassigned) [Compound 1a]?
A: Stability WB_Rat (ice; 1 hr) [1]: 105%; Stability SGF ([2]; simulated gastric fluid with pepsin): 99%; Stability SIF ([2]; simulated intestinal fluid with pancreatin): 99%; Stability WB_Human (37° C.; 2 hr) [3]: 101%; FHH TP (6 hr) (fresh human hepatocytes): BLD^a; AUC(0-t) ([4]; normalized to 1 μmol/kg dose, read-out: Plasma prodrug AUC0-24): 0.15 µM·h; Cmax ([4]; normalized to 1 μmol/kg dose, read-out: Plasma prodrug Cmax): 22 nM; Tmax ([4]; read-out: Plasma prodrug Tmax): 2 h; CC50 at 72 h [5]: > 50 µM
